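1) Cells in 96-well plates. 2) Compound, 48 h, 5 concentrations. 3) Linear interpolation between surrounding doses. 4) Unreached endpoint = highest concentration. The concentration for full growth arrest is given as TGI.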
Experiments:
Assay in all cases: NCI-60 cell line screen, 48 h
HOP-18 NSCLC = system: HOP-18 NSCLC
U251 CNS = system: U251 CNS
HCT-116 colon = system: HCT-116 colon
SF-539 CNS = system: SF-539 CNS
CCRF-CEM leukemia = system: CCRF-CEM leukemia
MALME-3M melanoma = system: MALME-3M melanoma
KM20L2 colon = system: KM20L2 colon
SN12C renal = system: SN12C renal
HL-60(TB) leukemia = system: HL-60(TB) leukemia
ACHN renal = system: ACHN renal
COLO 205 colon = system: COLO 205 colon
M14 melanoma = system: M14 melanoma
SNB-75 CNS = system: SNB-75 CNS
IGROV1 ovarian = system: IGROV1 ovarian
HOP-62 NSCLC = system: HOP-62 NSCLC
SNB-19 CNS = system: SNB-19 CNS
UACC-62 melanoma = system: UACC-62 melanoma
NCI-H226 lung = system: NCI-H226 lung
SK-MEL-28 melanoma = system: SK-MEL-28 melanoma
SF-268 CNS = system: SF-268 CNS
NCI-H460 lung = system: NCI-H460 lung
OVCAR-3 ovarian = system: OVCAR-3 ovarian
MOLT-4 leukemia = system: MOLT-4 leukemia
UO-31 renal = system: UO-31 renal
OVCAR-8 ovarian = system: OVCAR-8 ovarian
SF-295 CNS = system: SF-295 CNS
DLD-1 colon = system: DLD-1 colon
LXFL 529 NSCLC = system: LXFL 529 NSCLC
XF 498 CNS = system: XF 498 CNS
HCT-15 colon = system: HCT-15 colon
CAKI-1 renal = system: CAKI-1 renal
SK-MEL-5 melanoma = system: SK-MEL-5 melanoma
NCI-H522 lung = system: NCI-H522 lung
786-0 renal = system: 786-0 renal
UACC-257 melanoma = system: UACC-257 melanoma
HOP-92 NSCLC = system: HOP-92 NSCLC
SR leukemia = system: SR leukemia
KM12 colon = system: KM12 colon
DMS 114 small cell lung = system: DMS 114 small cell lung
OVCAR-4 ovarian = system: OVCAR-4 ovarian
RXF-631 renal = system: RXF-631 renal
RPMI-8226 leukemia = system: RPMI-8226 leukemia
M19-MEL melanoma = system: M19-MEL melanoma
SW-620 colon = system: SW-620 colon
NCI-H23 lung = system: NCI-H23 lung
SK-MEL-2 melanoma = system: SK-MEL-2 melanoma
K-562 leukemia = system: K-562 leukemia
EKVX NSCLC = system: EKVX NSCLC
HT29 colon = system: HT29 colon
TK-10 renal = system: TK-10 renal
RXF 393 renal = system: RXF 393 renal
A549 NSCLC = system: A549 NSCLC
A498 renal = system: A498 renal
LOX IMVI melanoma = system: LOX IMVI melanoma
SK-OV-3 ovarian = system: SK-OV-3 ovarian
SNB-78 CNS = system: SNB-78 CNS
HCC-2998 colon = system: HCC-2998 colon
OVCAR-5 ovarian = system: OVCAR-5 ovarian

Compound `CON(C)C(=O)CCCO` has a TGI (HOP-18 NSCLC) of over 100 µM, a TGI (U251 CNS) of over 100 µM and a TGI (HCT-116 colon) of over 100 µM. It also gave a TGI (SF-539 CNS) of over 100 µM, a TGI (CCRF-CEM leukemia) of over 100 µM and a TGI (MALME-3M melanoma) of over 100 µM. For the same compound, the TGI (KM20L2 colon) was over 100 µM, the TGI (SN12C renal) was over 100 µM and the TGI (HL-60(TB) leukemia) was over 100 µM. The TGI (ACHN renal) was over 100 µM, the TGI (COLO 205 colon) was over 100 µM and the TGI (M14 melanoma) was over 100 µM. For the same compound, the TGI (SNB-75 CNS) was over 100 µM, the TGI (IGROV1 ovarian) was over 100 µM and the TGI (HOP-62 NSCLC) was over 100 µM. For the same compound, the TGI (SNB-19 CNS) was over 100 µM, the TGI (UACC-62 melanoma) was over 100 µM and the TGI (NCI-H226 lung) was over 100 µM. It also gave a TGI (SK-MEL-28 melanoma) of over 100 µM, a TGI (SF-268 CNS) of over 100 µM and a TGI (NCI-H460 lung) of over 100 µM. The TGI (OVCAR-3 ovarian) was over 100 µM, the TGI (MOLT-4 leukemia) was over 100 µM and the TGI (UO-31 renal) was over 100 µM. It also gave a TGI (OVCAR-8 ovarian) of over 100 µM, a TGI (SF-295 CNS) of over 100 µM and a TGI (DLD-1 colon) of over 100 µM. It also gave a TGI (LXFL 529 NSCLC) of over 100 µM, a TGI (XF 498 CNS) of over 100 µM and a TGI (HCT-15 colon) of over 100 µM. It also gave a TGI (CAKI-1 renal) of over 100 µM, a TGI (SK-MEL-5 melanoma) of over 100 µM and a TGI (NCI-H522 lung) of over 100 µM. For the same compound, the TGI (786-0 renal) was over 100 µM, the TGI (UACC-257 melanoma) was over 100 µM and the TGI (HOP-92 NSCLC) was over 100 µM. For the same compound, the TGI (SR leukemia) was over 100 µM, the TGI (KM12 colon) was over 100 µM and the TGI (DMS 114 small cell lung) was over 100 µM. It also gave a TGI (OVCAR-4 ovarian) of over 100 µM, a TGI (RXF-631 renal) of over 100 µM and a TGI (RPMI-8226 leukemia) of over 100 µM. The TGI (M19-MEL melanoma) was over 100 µM, the TGI (SW-620 colon) was over 100 µM and the TGI (NCI-H23 lung) was over 100 µM. The TGI (SK-MEL-2 melanoma) was over 100 µM, the TGI (K-562 leukemia) was over 100 µM and the TGI (EKVX NSCLC) was over 100 µM. It also gave a TGI (HT29 colon) of over 100 µM, a TGI (TK-10 renal) of over 100 µM and a TGI (RXF 393 renal) of over 100 µM. The TGI (A549 NSCLC) was over 100 µM.

`CC1=NC(C(=O)O)Cc2c1[nH]c1ccccc21` (stereo unspecified) gave a TGI (HOP-18 NSCLC) of over 100 µM, a TGI (U251 CNS) of over 100 µM and a TGI (SF-539 CNS) of over 100 µM. The TGI (CCRF-CEM leukemia) was over 100 µM, the TGI (MALME-3M melanoma) was over 100 µM and the TGI (KM20L2 colon) was over 100 µM. The TGI (SN12C renal) was over 100 µM, the TGI (HL-60(TB) leukemia) was over 100 µM and the TGI (A498 renal) was over 100 µM. It also gave a TGI (ACHN renal) of over 100 µM, a TGI (COLO 205 colon) of over 100 µM and a TGI (M14 melanoma) of over 100 µM. It also gave a TGI (SNB-75 CNS) of over 100 µM, a TGI (IGROV1 ovarian) of over 100 µM and a TGI (SNB-19 CNS) of over 100 µM. The TGI (UACC-62 melanoma) was over 100 µM, the TGI (NCI-H226 lung) was over 100 µM and the TGI (SK-MEL-28 melanoma) was over 100 µM. The TGI (SF-268 CNS) was over 100 µM, the TGI (NCI-H460 lung) was over 100 µM and the TGI (OVCAR-3 ovarian) was over 100 µM. It also gave a TGI (MOLT-4 leukemia) of over 100 µM, a TGI (UO-31 renal) of over 100 µM and a TGI (OVCAR-8 ovarian) of over 100 µM. It also gave a TGI (LOX IMVI melanoma) of over 100 µM, a TGI (SF-295 CNS) of over 100 µM and a TGI (DLD-1 colon) of over 100 µM. For the same compound, the TGI (LXFL 529 NSCLC) was over 100 µM, the TGI (XF 498 CNS) was over 100 µM and the TGI (HCT-15 colon) was over 100 µM. It also gave a TGI (CAKI-1 renal) of over 100 µM, a TGI (SK-MEL-5 melanoma) of over 100 µM and a TGI (SK-OV-3 ovarian) of over 100 µM. The TGI (NCI-H522 lung) was over 100 µM, the TGI (HOP-92 NSCLC) was over 100 µM and the TGI (DMS 114 small cell lung) was over 100 µM. It also gave a TGI (RXF-631 renal) of over 100 µM, a TGI (RPMI-8226 leukemia) of over 100 µM and a TGI (M19-MEL melanoma) of over 100 µM. The TGI (SW-620 colon) was over 100 µM, the TGI (SNB-78 CNS) was over 100 µM and the TGI (NCI-H23 lung) was over 100 µM. It also gave a TGI (SK-MEL-2 melanoma) of over 100 µM, a TGI (K-562 leukemia) of over 100 µM and a TGI (EKVX NSCLC) of over 100 µM. For the same compound, the TGI (HT29 colon) was over 100 µM and the TGI (TK-10 renal) was over 100 µM.

`Cc1ncc(CCl)c2c1OC(C)(C)OC2` showed a TGI (HOP-18 NSCLC) of 36 µM, a TGI (U251 CNS) of 27.5 µM and a TGI (HCT-116 colon) of 65.8 µM. For the same compound, the TGI (SF-539 CNS) was over 100 µM, the TGI (CCRF-CEM leukemia) was over 100 µM and the TGI (HCC-2998 colon) was over 100 µM. For the same compound, the TGI (OVCAR-5 ovarian) was 40.3 µM, the TGI (MALME-3M melanoma) was 37 µM and the TGI (KM20L2 colon) was over 100 µM. The TGI (SN12C renal) was over 100 µM, the TGI (HL-60(TB) leukemia) was 65.2 µM and the TGI (A498 renal) was over 100 µM. It also gave a TGI (ACHN renal) of 45.4 µM, a TGI (M14 melanoma) of over 100 µM and a TGI (IGROV1 ovarian) of over 100 µM. For the same compound, the TGI (HOP-62 NSCLC) was over 100 µM, the TGI (SNB-19 CNS) was over 100 µM and the TGI (UACC-62 melanoma) was over 100 µM. For the same compound, the TGI (NCI-H226 lung) was over 100 µM, the TGI (SK-MEL-28 melanoma) was 56.6 µM and the TGI (SF-268 CNS) was 53.6 µM. It also gave a TGI (NCI-H460 lung) of over 100 µM, a TGI (OVCAR-3 ovarian) of 69.7 µM and a TGI (MOLT-4 leukemia) of over 100 µM. The TGI (UO-31 renal) was over 100 µM, the TGI (OVCAR-8 ovarian) was over 100 µM and the TGI (LOX IMVI melanoma) was 33.5 µM. It also gave a TGI (SF-295 CNS) of over 100 µM, a TGI (DLD-1 colon) of over 100 µM and a TGI (LXFL 529 NSCLC) of over 100 µM. It also gave a TGI (XF 498 CNS) of over 100 µM, a TGI (SK-OV-3 ovarian) of over 100 µM and a TGI (NCI-H522 lung) of 32.6 µM. For the same compound, the TGI (786-0 renal) was 41.2 µM, the TGI (UACC-257 melanoma) was over 100 µM and the TGI (HOP-92 NSCLC) was 73.1 µM. The TGI (KM12 colon) was over 100 µM, the TGI (DMS 114 small cell lung) was over 100 µM and the TGI (OVCAR-4 ovarian) was 28.4 µM. It also gave a TGI (RXF-631 renal) of 73.9 µM, a TGI (RPMI-8226 leukemia) of over 100 µM and a TGI (M19-MEL melanoma) of over 100 µM. It also gave a TGI (SW-620 colon) of 34 µM, a TGI (SNB-78 CNS) of over 100 µM and a TGI (NCI-H23 lung) of over 100 µM. For the same compound, the TGI (SK-MEL-2 melanoma) was over 100 µM, the TGI (K-562 leukemia) was over 100 µM and the TGI (EKVX NSCLC) was 41.4 µM. It also gave a TGI (HT29 colon) of over 100 µM, a TGI (TK-10 renal) of over 100 µM and a TGI (RXF 393 renal) of 29.5 µM. It also gave a TGI (A549 NSCLC) of over 100 µM.

Source: PubChem BioAssay (NCI)
